Measurements: US11672803B2, “Use of inhibitors of Brutons tyrosine kinase (Btk)” (priority 2010, dated 2023)

Tests used:
[1] = system: individuals with DLBCL; assay: Absolute lymphocyte count vs cycle day in individuals with DLBCL; format: in vivo, human; details: PD individuals, FIG. 11
Experimental: Patient 38011 was treated on schedule of 4 weeks on treatment followed by one week off. Thus, day 1 of each cycle follows one week off drug for this patient. Patients 38008 and 324001 were treated with continuous daily doses.
All Patients were treated on schedule of 4 weeks on treatment followed by one week off. Thus, day 1 of each cycle follows one week off drug for these patients. […] Patient 32002 received only one cycle of treatment.

[2] = system: individuals with follicular lymphoma; assay: Absolute lymphocyte count / B cell mobilization vs cycle day in individuals with follicular lymphoma; format: in vivo, human
Experimental: All Patients (except Pt 32009) were treated on schedule of 4 weeks on treatment followed by one week off. Thus, day 1 of each cycle follows one week off drug for these patients.
All Patients were treated on schedule of 4 weeks on treatment followed by one week off. Thus, day 1 of each cycle follows one week off drug for these patients.
All Patients except 38010 were treated on schedule of 4 weeks on treatment followed by one week off. Thus, day 1 of each cycle follows one week off drug for these patients.

[3] = system: DoHH2 cells; assay: Alamar blue assay in DoHH2 cells; format: cell-based; details: DLBCL cell line from a transformed follicular lymphoma patient
Excerpt: DOHH2 is a DLBCL (diffuse large B-cell lymphoma) cell line, from a transformed follicular lymphoma patient.
Assay was an alamar blue assay.

[4] = system: individuals with mantle cell lymphoma; assay: Absolute lymphocyte count vs cycle day in individuals with mantle cell lymphoma; format: in vivo, human
Experimental: Patients 32006, 38003, and 38004 were treated on schedule of 4 weeks on treatment followed by one week off. Thus, day 1 of each cycle follows one week off drug for these patients. The other patients were treated with continuous daily dosing.

## C=CC(=O)N1CCC[C@@H](n2nc(-c3ccc(Oc4ccccc4)cc3)c3c(N)ncnc32)C1 [Btk inhibitor, (R)-1-(3-(4-amino-3-(4-phenoxyphenyl)-1H-pyrazolo[3,4-d]pyrimidin-1-yl)piperidin-1-yl)prop-2-en-1-one]
[1]
  Lymphocyte mobilization (ALC): lack of mobilization for 3 of the 4 patients
[2]; Patient 32007, Cohort 4, follicular lymphoma grade 3, regressed from SD to CR, FIG. 14
  B cell fraction change by cycle: characteristic cyclic increases
[2]; follicular lymphoma, PD individuals, FIG. 9
  Lymphocyte mobilization (ALC): lack of mobilization
[2]; follicular lymphoma, complete or partial response (CR/PR), 4 weeks on, 1 week off, FIG. 7
  Absolute lymphocyte count (ALC) change by cycle: increases of ALC during most cycles of most patients
[3]
  Sensitivity of DOHH2 cell line: moderately sensitive
[4]; patient with initial PD (32014), FIG. 12
  Lymphocyte mobilization (ALC): failed to show mobilization
[4]; responding patients, FIG. 13
  Lymphocyte mobilization (ALC): all responding patients showed some degree of mobilization
